Earlier results in patent publication US10918126B2, “Isotopically modified compounds and their use as food supplements” (Retrotope, Inc., priority 2006, dated 2021).
Where two headings read alike, the source gives them in different places.

Columns and labels:
[1] = target: liver alcohol dehydrogenase (ADH); conditions: ethanol oxidation by ADH to acetaldehyde

(1-R)[I—^3H2]— ethanol
kinetic isotope effect T(V/K) ([1]; pH 6): 6.5 | kinetic isotope effect T(V/K) ([1]; pH 9): 2.5

deuterated ethanol
mean value of D(V/K) (perfused rat liver): 2.89

(1-R)[1-^2H2]— ethanol
kinetic isotope effect D(V/K) ([1]; pH 6): 3 | kinetic isotope effect D(V/K) ([1]; pH 9): 1.5
